{"source": "patent US6159733A", "about": "“Method for photoinactivating malignant cells” (priority 1996, dated 2000)", "origin": "cited, not measured here", "key": {"cell types": {"system": "cell types", "conditions": "cited from earlier work"}, "[1]": {"system": "multidrug resistance (mdr) pump", "conditions": "cited from earlier work"}, "malignant cells": {"system": "malignant cells", "conditions": "cited from earlier work"}, "BFU-E": {"system": "BFU-E", "conditions": "cited from earlier work"}, "cancer cell": {"system": "cancer cell", "conditions": "conditions of the CFU-GM/BFU-E survival data; cited from earlier work"}, "pluripotent stem cells": {"system": "pluripotent stem cells", "conditions": "Sieber, Photochem Photobiol. 46:71 (1987); cited from earlier work"}, "CFU-GM": {"system": "CFU-GM", "conditions": "cited from earlier work"}, "[2]": {"system": "cell lines in BM mixtures", "conditions": "cited from earlier work"}, "[3]": {"conditions": "Atzpodien, Cancer Res. 46:4892 (1986)"}}, "note": "Read-outs that look alike come from different tables or passages of the source.", "data": [{"molecule": "Photofrin", "values": [{"measurement": "relation of uptake and photosensitivity", "setting": "cell types; Williams, Photochem. Photobiol. 46:733 (1987)", "value": "increased uptake resulted in increased photosensitivity for each cell type"}, {"measurement": "differences in photoinactivation between cell types", "setting": "cell types; despite significant differences in photosensitizer uptake", "value": "marginal differences in photoinactivation"}]}, {"molecule": "COc1ccc(CCN(C)CCCC(C#N)(c2ccc(OC)c(OC)c2)C(C)C)cc1OC", "note": "(stereo not drawn) [verapamil]", "values": [{"measurement": "inhibition of the multidrug resistance (mdr) pump", "setting": "[1]", "value": "known inhibitor"}]}, {"molecule": "CCCCN1C(=O)C(=CC=CC=C2Oc3ccccc3N2CCCS(=O)(=O)O)C(=O)N(CCCC)C1=S", "note": "[MC 540, merocyanine-540]", "values": [{"measurement": "photoinactivation of malignant cells", "setting": "malignant cells", "value": "successfully achieved"}, {"measurement": "surviving fraction of BFU-E", "setting": "BFU-E; [3]", "value": 0.14}, {"measurement": "surviving fraction of BFU-E", "setting": "BFU-E; Gulliya, Blood 73:1059 (1989)", "value": 0.04}, {"measurement": "reduction of cancer cell survival", "setting": "cancer cell", "value": "4-5 log10"}, {"measurement": "depletion of murine pluripotent stem cells", "setting": "pluripotent stem cells", "value": 1, "unit": "log10"}, {"measurement": "surviving fraction of CFU-GM", "setting": "CFU-GM; [3]", "value": 0.18}, {"measurement": "surviving fraction of CFU-GM", "setting": "CFU-GM; Gulliya, Blood 73:1059 (1989)", "value": 0.17}, {"measurement": "photoinactivation of cell lines mixed with BM", "setting": "[2]; BM fraction=0.95-0.99", "value": "more effectively inactivated in mixtures"}]}, {"molecule": "benzoporphyrinderivative monoacid ring A [BPD-MA]", "values": [{"measurement": "surviving fraction of BFU-E", "setting": "BFU-E; bfu-e", "value": 0.05}, {"measurement": "reduction of cancer cell survival", "setting": "cancer cell", "value": "4-5 log10"}, {"measurement": "surviving fraction of CFU-GM", "setting": "CFU-GM; cfu-gm", "value": 0.04}]}, {"molecule": "sulphonate aluminum phthalocyanine [AlSPc]", "values": [{"measurement": "photoinactivation of malignant cells", "setting": "malignant cells", "value": "successfully achieved"}, {"measurement": "reduction of cancer cell survival", "setting": "cancer cell", "value": "4-5 log10"}, {"measurement": "surviving fraction of CFU-GM", "setting": "CFU-GM; cfu-gm", "value": 0.60}, {"measurement": "photoinactivation of cell lines mixed with BM", "setting": "[2]; BM fraction=0.99", "value": "photoinactivated as effectively as unmixed cell lines"}]}, {"molecule": "dihematoporphyrin ether [DHE]", "values": [{"measurement": "photoinactivation of malignant cells", "setting": "malignant cells", "value": "successfully achieved"}, {"measurement": "surviving fraction of BFU-E", "setting": "BFU-E; Atzpodien, Blood 70:484 (1987)", "value": 0.47}, {"measurement": "surviving fraction of BFU-E", "setting": "BFU-E; Lemoli, Blood 81:793 (1993)", "value": 0.10}, {"measurement": "reduction of cancer cell survival", "setting": "cancer cell", "value": "4-5 log10"}, {"measurement": "surviving fraction of CFU-GM", "setting": "CFU-GM; Atzpodien, Blood 70:484 (1987)", "value": 0.29}, {"measurement": "surviving fraction of CFU-GM", "setting": "CFU-GM; Lemoli, Blood 81:793 (1993)", "value": 0.05}]}]}
